# From patent US11059830B2, “Compounds that participate in cooperative binding and uses thereof” (Revolution Medicines, Inc., priority 2015, dated 2021)
# pKd: −log10 of the molar value.
# Biological target: FKBP12 (Homo sapiens (Human), UniProt P62942)
# Assay: SPR binding of compound (analyte) to immobilized FKBP12 (Example 7)
# Details: 25° C., 12×HIS tagged FKBP12 immobilized on NTA chip; read-out: SPR affinity to FKBP12: KD
# Description: This protocol utilizes Surface Plasmon Resonance (SPR) as a method to determine kinetics (KD, Ka, Kd) for the binding of compound (analyte) to immobilized FKBP12 (ligand).
# Compound in 100% DMSO (in-house), 10×HBS-P+ buffer (GE Healthcare BR-1006-71), Assay buffer (1×HBS-P+ buffer, 1% DMSO), 12×HIS tagged FKBP12 (in-house).
# Experiments are performed at 25° C. Stock solution of 12×HIS tagged FKBP12 is diluted to 100 nM in assay buffer (1% DMSO final). Approximately 500-600 RU of FKBP12 is immobilized on one of two flow cells of an activated NTA chip. The second flow cell is not activated as a reference for non-specific interaction of the analyte to the sensor chip. Various concentrations of compound (1 nM-1 μM range), serially diluted into the same assay buffer (1% DMSO final), are injected onto the FKBP12 surface and reference surface at a flow rate of 10 μl/min. The surface is regenerated between analyte injections with 350 mM EDTA.
# The BiaEvaluation software program is used for data fitting. All data is reference subtracted against both the reference flow cell and a buffer injection. For kinetic analyses, data is locally fit to a 1:1 interaction model.
# Chain of FKBP12 (P62942 whole entry): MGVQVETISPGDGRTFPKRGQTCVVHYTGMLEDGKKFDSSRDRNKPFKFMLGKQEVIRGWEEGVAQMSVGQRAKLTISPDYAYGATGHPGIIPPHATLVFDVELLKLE
smiles,measurement,value
CC[C@H](Cc1ccccc1)[C@@H]1/C=C/C/C=C/C[C@@H](C)[C@H](O)[C@@H](C)[C@@H]2CC[C@@H](C)C(=O)C(O)(O2)C(=O)N2CCCC[C@H]2C(=O)O1 [Compound 2],pKd,7.90
